Experimental data: patent publication US20250082674A1, “METHODS OF TREATING COPPER METABOLISM-ASSOCIATED DISEASES OR DISORDERS” (priority 2021, published 2025)
Like-named read-outs stand apart in the source and are kept apart here.

Assays:
copper [1] = settings: Study 201, BC-TTM monotherapy, Week 24
[2] = system: patients with Wilson disease (WD); assay: Study 301: Clinical Global Impression scales (CGI-I, CGI-S); assay type: in vivo, human
Description: Clinical Global Impression-[…]: The Clinical Global Impression (CGI) rating scales were commonly used measures of symptom severity, treatment response, and the efficacy of treatments in treatment studies of adult and pediatric patients with mental disorders.
The Clinical Global Impression-Severity scale (CGI-S) is a 7-point scale that requires the clinician to rate the severity of the patient's illness at the time of assessment, relative to the clinician's past experience with patients who have the same diagnosis. Considering total clinical experience, a patient was assessed on severity of illness at the time of rating as: 1, normal, not at all ill; 2, borderline ill; 3, mildly ill; 4, moderately ill; 5, markedly ill; 6, severely ill; or 7, extremely ill.
While transformed CGI-I (TCGI-I) assesses how the WD patients condition changed compared to baseline, CGI-I may indicate the overall clinical improvement of the patients in the study compared to baseline for each treatment arm.

copper [3] = system: copper
Procedure: Study 204 is registered with ClinicalTrials.gov, number NCT04573309, and is described in Example 1 of U.S. Provisional Patent Application No. 63/237,120, filed Aug. 25, 2021, and incorporated by reference herein. […] The participants remained on a Cu-controlled diet, and Cu and Mo balance were measured on all intake (i.e., investigational agent, food and fluids) and all output (urine and feces). The Cu and Mo concentration of each sample was determined by inductively coupled plasma mass spectrometry (ICP-MS). Copper and Mo content of all intake and output was calculated based on the volume or weight of intake and output and the concentration of representative samples.
Collection periods for feces and urine varied in duration from 3 to 15 days to support assessment of both Cu and Mo balance before and at steady state for both 15 mg and 30 mg. Equilibration periods on Cu/Mo-controlled diets were a minimum of 48 hours. Copper balance was calculated as the mean daily Cu balance over each of the 4 collection periods. The interpretation of Cu balance was based on the criteria previously established when undertaking Cu balance studies with zinc treatment.
These participants had all intake (food and drink) and output (urine and feces) collected from Day-4 through Day-1 (baseline), from Day 1 through Day 8, and Day 25 through Day 39.

[4] = Study 204, Days 1-8 (Accumulation 15 mg/day)
[5] = Study 204, Days 25-28 (Steady State 15 mg/day)
[6] = Study 204, Days 31-35 (Accumulation 30 mg/day)
[7] = Study 204, Days 36-39 (Steady State 30 mg/day)

## Bis-choline tetrathiomolybdate [BC-TTM]
Copper [1]
  reduction of mean serum cNCCcorrected compared with baseline: 72%
[2]; Study 301, FIG. 22
  CGI-I scores at week 48 versus SoC: improvements
[2]; Study 301, Full Analysis Set
  CGI-S (1-7, 1 is normal), Change from Baseline at 48 weeks, Mean: −0.5
  CGI-S, Difference at 48 weeks, LSM (SE), BC-TTM vs SoC: −0.2 (0.13)
  T-CGI-I (−3 to 3, −3 is very much improved) at 48 weeks, Mean: −0.7
  T-CGI-I, Difference at 48 weeks, LSM (SE), BC-TTM vs SoC: −0.3 (0.15)
Copper [3]; [4]
  Daily Net Copper Balance, Change from Baseline, Median (IQR): −0.4291 (0.2176) mg
  Daily Net Copper Balance, Value, Mean (SD): 0.7654 (0.3538) mg
  Daily Net Copper Balance, Value, Median (IQR): 0.6678 (0.6871) mg
  Increase from Baseline in Average Daily Fecal Copper Excretion, Mean (SD): 0.3278 (0.319) mg
  Increase from Baseline in Average Daily Urine Copper Excretion, Mean (SD): −0.0108 (0.01119) mg
Copper [3]; [5]
  Daily Net Copper Balance, Change from Baseline, Median (IQR): −0.1459 (1.0434) mg
  Daily Net Copper Balance, Value, Mean (SD): 0.7638 (0.9138) mg
  Daily Net Copper Balance, Value, Median (IQR): 1.1434 (1.7052) mg
  Increase from Baseline in Average Daily Fecal Copper Excretion, Mean (SD): 0.4931 (0.4955) mg
  Increase from Baseline in Average Daily Urine Copper Excretion, Mean (SD): 0.1042 (0.08556) mg
Copper [3]; [6]
  Daily Net Copper Balance, Change from Baseline, Median (IQR): −0.3707 (0.1093) mg
  Daily Net Copper Balance, Value, Mean (SD): 0.8577 (0.3427) mg
  Daily Net Copper Balance, Value, Median (IQR): 0.8312 (0.6838) mg
  Increase from Baseline in Average Daily Fecal Copper Excretion, Mean (SD): 0.3879 (0.4193) mg
  Increase from Baseline in Average Daily Urine Copper Excretion, Mean (SD): 0.0744 (0.05427) mg
Copper [3]; [7]
  Daily Net Copper Balance, Change from Baseline, Median (IQR): −0.4225 (0.2275) mg
  Daily Net Copper Balance, Value, Mean (SD): 0.8582 (0.2565) mg
  Daily Net Copper Balance, Value, Median (IQR): 0.7986 (0.5024) mg
  Increase from Baseline in Average Daily Fecal Copper Excretion, Mean (SD): 0.0899 (0.2021) mg
  Increase from Baseline in Average Daily Urine Copper Excretion, Mean (SD): 0.1042 (0.04328) mg
Copper [3]; Study 204, Table 10, Days 1-8 (Accumulation 15 mg/day)
  Daily Net Copper Balance, Change from Baseline, Mean (SD): −0.4848 (0.119) mg
Copper [3]; Study 204, Table 10, Days 25-28 (Steady State 15 mg/day)
  Daily Net Copper Balance, Change from Baseline, Mean (SD): −0.4865 (0.5993) mg
Copper [3]; Study 204, Table 10, Days 31-35 (Accumulation 30 mg/day)
  Daily Net Copper Balance, Change from Baseline, Mean (SD): −0.3925 (0.05781) mg
Copper [3]; Study 204, Table 10, Days 36-39 (Steady State 30 mg/day)
  Daily Net Copper Balance, Change from Baseline, Mean (SD): −0.3921 (0.1168) mg
Copper [3]; Study 204, Table 13, Days 1-8 (Accumulation 15 mg/day)
  Decrease from Baseline in Average Daily Net Copper Balance, Change from Baseline Mean (SD): −0.4848 (0.119) mg
Copper [3]; Study 204, Table 13, Days 1-39
  Decrease from Baseline in Average Daily Net Copper Balance, Change from Baseline Mean (SD): −0.448 (0.1469) mg
Copper [3]; Study 204, Table 13, Days 25-28 (Steady State 15 mg/day)
  Decrease from Baseline in Average Daily Net Copper Balance, Change from Baseline Mean (SD): −0.6381 (0.7673) mg
Copper [3]; Study 204, Table 13, Days 31-35 (Accumulation 30 mg/day)
  Decrease from Baseline in Average Daily Net Copper Balance, Change from Baseline Mean (SD): −0.3925 (0.05781) mg
Copper [3]; Study 204, Table 13, Days 36-39 (Steady State 30 mg/day)
  Decrease from Baseline in Average Daily Net Copper Balance, Change from Baseline Mean (SD): −0.2765 (0.3138) mg
